Like-named read-outs stand apart in the source and are kept apart here.
Tests used:
diabetic nephropathy = details: cited from earlier work
[1] = Pharmacokinetics of XXD ingredients in diabetic rat plasma (LC-MS/MS); type: in vivo; details: for shape of plasma concentration-time curve / Tmax: after ig administration of XXD for 12 weeks; for Tmax / AUC(0-t) / Cmax: male, Sprague-Dawley, po; for Tmax: diabetic rat plasma, read-out: time of peak concentrations (converted); for AUC(0-t) / Cmax: rat
Procedure: Male Sprague-Dawley rats (90−100 g) were purchased from the Shanghai Slac Laboratory Animal Co. (Shanghai, China). The rats were housed in an air-conditioned room at 22–24°C under a 12-h dark/light cycle and were given food and water at libitum. All animal experiments were conducted in accordance with the institutional guidelines for the care and use of laboratory animals at Shanghai University of TCM. After 1-week adaptation, animals were divided into a normal control (NC) group fed a standard diet and a high-fat group received a high-fat diet. After 4 weeks, rats on the high-fat diet were treated with streptozotocin (40 mg/kg, intraperitoneal injection). […] In the clinical practice of TCM, XXD is usually prescribed at a daily dose of 46 g of herbal materials (amount to 12 g extract) for diabetic patient. When this human dose was converted into an animal dose (a person of 60 kg, and a conversion factor of 6.25 between human and rat), it was equivalent to the low dose (1.25 g/kg extract) used in this study. NC and DM were treated with vehicle (normal saline) in a matched volume. All the rats were administered the drugs via intragastric gavage (ig) once a day, for 12 weeks.
The rats treated with XXD for 12 weeks were fasted with free access to water for 12 h before the PK experiments. Blood samples were collected before dosing and at 0, 0.25, 0.5, 1, 2, 4, 6, 12, and 24 h following administration. A validated liquid chromatography-tandem mass spectrometry (LC-MS/MS) method was applied to simultaneously determine the concentration of 11 ingredients (coptisine, jatrorrhizine, berberine, palmatine, baicalin, baicalein, wogonoside, wogonin, rhein, emodin, and aloeemodin) in blood plasma. The plasma concentration-time data were analysed by noncompartmental methods with the WinNonLin software package (Pharsight Corporation, Mountain View, CA, USA) to determine PK parameters.

[2] = XXD 1.25 g/kg intragastric gavage for 12 weeks, diabetic rats, plasma, mean ± SD n = 8, read-out: AUC0–24 h
[3] = XXD 1.25 g/kg intragastric gavage for 12 weeks, diabetic rats, plasma, mean ± SD n = 8, read-out: C max
[4] = XXD 2.5 g/kg intragastric gavage for 12 weeks, diabetic rats, plasma, mean ± SD n = 8, read-out: AUC0–24 h
[5] = XXD 2.5 g/kg intragastric gavage for 12 weeks, diabetic rats, plasma, mean ± SD n = 8, read-out: C max

Structure (SMILES)	Tmax [1] [min]	AUC(0-t) [1, 2] [ng·h/mL]	Cmax [1, 3] [ng/mL]	AUC(0-t) [1, 4] [ng·h/mL]	Cmax [1, 5] [ng/mL]	anti-DN effects (diabetic nephropathy)	shape of plasma concentration-time curve ([1]; diabetic rats)	other results
O=C(O)[C@H]1O[C@@H](Oc2cc3oc(-c4ccccc4)cc(=O)c3c(O)c2O)[C@H](O)[C@@H](O)[C@@H]1O [Baicalin, baicalin]	10	4700 ± 1730	1560 ± 570	16100 ± 9600	4310 ± 1710	exhibited anti-DN effects	double peaks	renal TGF-β1 protein expression (diabetic nephropathy): downregulate
Cc1cc(O)c2c(c1)C(=O)c1cc(O)cc(O)c1C2=O [Emodin, emodin]						exhibited anti-DN effects		Tmax ([1]; in vivo): 30 min; AUC(0-t) ([1]; in vivo, XXD 1.25 g/kg intragastric gavage for 12 weeks, diabetic rats, plasma, mean ± SD n = 8, read-out: AUC0–24 h): 61 ± 8 ng·h/mL; Cmax ([1]; in vivo, XXD 1.25 g/kg intragastric gavage for 12 weeks, diabetic rats, plasma, mean ± SD n = 8, read-out: C max): 13 ± 7 ng/mL; AUC(0-t) ([1]; in vivo, XXD 2.5 g/kg intragastric gavage for 12 weeks, diabetic rats, plasma, mean ± SD n = 8, read-out: AUC0–24 h): 119 ± 25 ng·h/mL; Cmax ([1]; in vivo, XXD 2.5 g/kg intragastric gavage for 12 weeks, diabetic rats, plasma, mean ± SD n = 8, read-out: C max): 22 ± 9 ng/mL
COc1cc2c(cc1O)CC[n+]1cc3c(OC)c(OC)ccc3cc1-2 [Jatrorrhizine, jatrorrhizine]		172 ± 57	14 ± 9	201 ± 152	21 ± 13		double peaks	
COc1cc2c(cc1OC)-c1cc3ccc(OC)c(OC)c3c[n+]1CC2 [Palmatine, palmatine]								AUC(0-t) ([1]; in vivo, 1.25 g/kg): 113 ± 69 ng·h/mL; Cmax ([1]; in vivo, 1.25 g/kg): 17 ± 13 ng/mL; AUC(0-t) ([1]; in vivo, 2.5 g/kg): 312 ± 197 ng·h/mL; Cmax ([1]; in vivo, 2.5 g/kg): 29 ± 18 ng/mL
O=C1c2cccc(O)c2C(=O)c2c(O)cc(CO)cc21 [aloeemodin]								plasma concentration relative to LLOQ ([1]; at about 0.5–2 h after ig XXD, below the LLOQ at other times): slightly higher than the lower limit of quantification

More lines, main results first:

Tmax [1] [min]	AUC(0-t) [1, 2] [ng·h/mL]	Cmax [1, 3] [ng/mL]	AUC(0-t) [1, 4] [ng·h/mL]	Cmax [1, 5] [ng/mL]	Structure (SMILES)	anti-DN effects (diabetic nephropathy)	shape of plasma concentration-time curve ([1]; diabetic rats)	other results
10	1100 ± 216	961 ± 430	2790 ± 937	1750 ± 514	O=C(O)c1cc(O)c2c(c1)C(=O)c1cccc(O)c1C2=O [Rhein, rhein]	exhibited anti-DN effects		renal TGF-β1 protein expression (diabetic nephropathy): downregulate
10	154 ± 71	47 ± 38	423 ± 307	149 ± 86	COc1c(O)cc(O)c2c(=O)cc(-c3ccccc3)oc12 [Wogonin, wogonin]			
10	3460 ± 894	1140 ± 321	8880 ± 2990	2240 ± 475	COc1c(O[C@@H]2O[C@H](C(=O)O)[C@@H](O)[C@H](O)[C@H]2O)cc(O)c2c(=O)cc(-c3ccccc3)oc12 [Wogonoside, wogonoside]		double peaks	

Reference: article PMC3713598, “Renal Protective Role of Xiexin Decoction with Multiple Active Ingredients Involves Inhibition of Inflammation through Downregulation of the Nuclear Factor-κB Pathway in Diabetic Rats” (Evidence-based Complementary and Alternative Medicine : eCAM, 2013)
